Experiments:
Type in all cases: cell-based
[1] = target: T1, human muscarinic M1 receptor (Homo sapiens, UniProt P11229); experiment: Alphascreen Surefire phospho-ERK1/2 assay, M1; settings: for EC50: CHO cells stably expressing human M1, agonist 5 min, 37° C., read-out: pEC50 M1 (converted); for Emax: CHO, read-out: % Emax cf. ACh, M1
T1 sequence (P11229 1-460): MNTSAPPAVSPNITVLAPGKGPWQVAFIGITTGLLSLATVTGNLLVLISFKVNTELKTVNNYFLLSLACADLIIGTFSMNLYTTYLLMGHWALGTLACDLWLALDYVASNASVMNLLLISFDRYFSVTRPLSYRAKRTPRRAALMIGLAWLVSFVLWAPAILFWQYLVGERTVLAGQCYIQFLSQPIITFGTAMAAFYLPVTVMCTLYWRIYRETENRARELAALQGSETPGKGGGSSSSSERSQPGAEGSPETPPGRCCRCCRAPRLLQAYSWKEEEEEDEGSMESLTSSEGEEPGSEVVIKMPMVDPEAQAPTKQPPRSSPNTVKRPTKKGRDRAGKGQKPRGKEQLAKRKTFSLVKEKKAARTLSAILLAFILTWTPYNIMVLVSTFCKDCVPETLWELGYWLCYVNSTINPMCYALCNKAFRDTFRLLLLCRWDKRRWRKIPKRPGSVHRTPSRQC
Protocol: (§1) ERK1/2 phosphorylation is a downstream consequence of both Gq/11 and Gi/o protein coupled receptor activation, making it highly suitable for the assessment of M1, M3 (Gq/11 coupled) and M2, M4 receptors (Gi/o coupled), rather than using different assay formats for different receptor subtypes. CHO cells stably expressing the human muscarinic M1, M2, M3 or M4 receptor were plated (25K/well) onto 96-well tissue culture plates in MEM-alpha+10% dialysed FBS. Once adhered, cells were serum-starved overnight. Agonist stimulation was performed by the addition of 5 μL agonist to the cells for 5 min (37° C.). Media was removed and 50 μL of lysis buffer added. After 15 min, a 4 μL sample was transferred to 384-well plate and 7 μL of detection mixture added. Plates were incubated for 2 h with gentle agitation in the dark and then read on a PHERAstar plate reader.
(§2) pEC50 and Emax figures were calculated from the resulting data for each receptor subtype.

[2] = target: T2, human muscarinic M4 receptor (Homo sapiens, UniProt P08173); experiment: Alphascreen Surefire phospho-ERK1/2 assay, M4; settings: for EC50: CHO cells stably expressing human M4, agonist 5 min, 37° C., read-out: pEC50 M4 (converted); for Emax: CHO, read-out: % Emax cf. ACh, M4
T2 construct: expressed in transfected cells
T2 sequence (P08173 1-479): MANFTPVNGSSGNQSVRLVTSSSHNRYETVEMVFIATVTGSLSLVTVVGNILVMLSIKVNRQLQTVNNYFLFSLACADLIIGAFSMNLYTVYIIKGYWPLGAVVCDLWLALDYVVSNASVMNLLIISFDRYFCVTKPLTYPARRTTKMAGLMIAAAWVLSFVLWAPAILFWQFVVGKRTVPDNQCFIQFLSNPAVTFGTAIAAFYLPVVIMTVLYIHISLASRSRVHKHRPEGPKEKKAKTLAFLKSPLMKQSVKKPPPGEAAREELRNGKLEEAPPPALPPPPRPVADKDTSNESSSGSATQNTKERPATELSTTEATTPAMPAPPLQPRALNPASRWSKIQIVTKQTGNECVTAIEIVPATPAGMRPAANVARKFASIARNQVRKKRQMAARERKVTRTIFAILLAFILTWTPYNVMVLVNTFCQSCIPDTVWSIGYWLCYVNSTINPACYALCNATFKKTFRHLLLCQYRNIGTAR
Protocol: as §1, §2

[3] = target: T3, human muscarinic M2 receptor (Homo sapiens, UniProt P08172); experiment: Alphascreen Surefire phospho-ERK1/2 assay, M2; settings: for EC50: CHO cells stably expressing human M2, agonist 5 min, 37° C., read-out: pEC50 M2 (converted); for Emax: CHO, read-out: % Emax cf. ACh, M2
T3 sequence (P08172 1-466): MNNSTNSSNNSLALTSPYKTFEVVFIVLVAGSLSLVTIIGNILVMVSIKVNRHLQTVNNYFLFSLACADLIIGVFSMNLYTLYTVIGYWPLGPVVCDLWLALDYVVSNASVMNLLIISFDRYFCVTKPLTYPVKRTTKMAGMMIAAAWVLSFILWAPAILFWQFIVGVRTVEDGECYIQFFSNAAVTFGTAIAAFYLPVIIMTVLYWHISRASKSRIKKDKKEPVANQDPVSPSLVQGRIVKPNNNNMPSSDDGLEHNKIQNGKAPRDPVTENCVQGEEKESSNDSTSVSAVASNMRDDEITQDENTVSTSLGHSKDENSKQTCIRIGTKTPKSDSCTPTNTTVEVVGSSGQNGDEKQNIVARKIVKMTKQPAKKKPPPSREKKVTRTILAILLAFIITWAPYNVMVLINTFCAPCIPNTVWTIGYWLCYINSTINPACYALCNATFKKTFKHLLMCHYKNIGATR
Protocol: as §1, §2

[4] = target: T4, human muscarinic M3 receptor (Homo sapiens, UniProt P20309); experiment: Alphascreen Surefire phospho-ERK1/2 assay, M3; settings: for EC50: CHO cells stably expressing human M3, agonist 5 min, 37° C., read-out: pEC50 M3 (converted); for Emax: CHO, read-out: % Emax cf. ACh, M3
T4 construct: expressed in transfected cells
T4 sequence (P20309 whole entry): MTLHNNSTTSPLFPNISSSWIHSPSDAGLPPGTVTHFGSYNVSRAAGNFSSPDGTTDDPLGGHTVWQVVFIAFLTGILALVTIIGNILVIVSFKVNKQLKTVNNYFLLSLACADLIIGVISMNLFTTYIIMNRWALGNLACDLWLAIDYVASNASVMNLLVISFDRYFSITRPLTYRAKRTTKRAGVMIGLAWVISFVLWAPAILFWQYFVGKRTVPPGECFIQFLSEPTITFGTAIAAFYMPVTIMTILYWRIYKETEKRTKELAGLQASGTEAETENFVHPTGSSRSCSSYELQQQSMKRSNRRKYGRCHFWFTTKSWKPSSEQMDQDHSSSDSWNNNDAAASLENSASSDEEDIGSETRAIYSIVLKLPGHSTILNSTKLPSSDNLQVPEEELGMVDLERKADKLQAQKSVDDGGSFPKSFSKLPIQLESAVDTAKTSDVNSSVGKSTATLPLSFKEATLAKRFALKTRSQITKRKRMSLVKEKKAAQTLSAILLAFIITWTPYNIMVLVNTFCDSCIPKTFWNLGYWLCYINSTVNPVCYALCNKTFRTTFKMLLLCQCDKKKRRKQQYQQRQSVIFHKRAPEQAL
Protocol: as §1, §2

EC50 [1] [µM]	Emax [1] [%]	EC50 [2] [µM]	Emax [2] [%]	EC50 [3] [µM]	Emax [3] [%]	EC50 [4] [µM]	Emax [4] [%]	Compound
1	24	0.158	26					CCOC(=O)N1CCC2(CC(N3CCC(N4CC(F)(F)C4)CC3)C2)C1 (single isomer, unassigned) [Example 1-1, Ethyl 2-[4-(3,3-difluoroazetidin-1-yl)piperidin-1-yl]-6-azaspiro[3.4]octane-6-carboxylate]
> 20	37	0.0631	67	> 20	7	> 20	7	CCOC(=O)N1CCC2(CC(N3CCC(N4CC[C@@H]4C(=O)OC)CC3)C2)C1 (single isomer, unassigned) [Example 1-2]
> 20	20	0.2	23					CCOC(=O)N1CCC2(CC(N3CCC(N4CCC4=O)CC3)C2)C1 (single isomer, unassigned) [Example 1-3, Ethyl 2-[4-(2-oxoazetidin-1-yl)piperidin-1-yl]-6-azaspiro[3.4]octane-6-carboxylate]
> 20	18	0.158	41					CCOC(=O)N1CCC2(CC(N3CCC(N4C(=O)C[C@@H]4C)CC3)C2)C1 (single isomer, unassigned) [Example 1-4]
0.316	69	0.1	56	> 20	37	> 20	0	CCOC(=O)N1CCC2(CC(N3CCC(N4C(=O)C[C@@H]4CC)CC3)C2)C1 (single isomer, unassigned) [Example 1-5]
> 20	13	0.251	74					CCOC(=O)N1CCC2(CC(N3CCC(N4C(=O)C[C@H]4C)CC3)C2)C1 (single isomer, unassigned) [Example 1-6]
0.794	94	0.0794	101	0.501	26	> 20	21	CCOC(=O)N1CCC2(CC(N3CCC(N4C(=O)C[C@H]4CC)CC3)C2)C1 (single isomer, unassigned) [Example 1-7]

From patent US12024499B2, “Muscarinic agonists” (Heptares Therapeutics Limited, priority 2015, dated 2024)
